# Where two headings read alike, the source gives them in different places.
# Key:
# [1] = target: T1, GAL4 DBD-CfEcR(DEF)/VP16AD-MmRXRE (Choristoneura fumiferana, UniProt O77240); assay: cell-based
# T1 sequence (O77240 1-513): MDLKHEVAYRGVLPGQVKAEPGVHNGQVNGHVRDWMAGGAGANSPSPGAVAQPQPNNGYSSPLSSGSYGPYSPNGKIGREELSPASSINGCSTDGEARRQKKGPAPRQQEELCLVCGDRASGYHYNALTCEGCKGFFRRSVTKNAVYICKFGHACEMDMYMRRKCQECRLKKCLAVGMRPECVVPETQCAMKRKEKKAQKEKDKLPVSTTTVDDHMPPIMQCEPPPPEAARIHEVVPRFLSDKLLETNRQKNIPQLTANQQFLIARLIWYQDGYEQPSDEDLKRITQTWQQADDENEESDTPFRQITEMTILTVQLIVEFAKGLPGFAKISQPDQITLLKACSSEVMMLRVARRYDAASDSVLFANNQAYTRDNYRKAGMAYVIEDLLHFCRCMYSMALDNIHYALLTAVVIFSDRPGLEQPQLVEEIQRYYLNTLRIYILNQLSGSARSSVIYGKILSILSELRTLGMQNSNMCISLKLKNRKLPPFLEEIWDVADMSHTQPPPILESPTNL
# Excerpt: GAL4 DBD-CfEcR(DEF)/VP16AD-MmRXRE: The wild-type D, E, and F domains from spruce budworm Choristoneura fumiferana EcR (“CfEcR-DEF”; SEQ ID NO: 1) were fused to a GAL4 DNA binding domain (“Gal4 DBD1-147”; nucleotides 31 to 471 of SEQ ID NO: 2) and placed under the control of the SV40e promoter of pM vector (PT3119-5, Clontech, Palo Alto, Calif.). The D and E domains from Mus Musculus RXR (“MmRXR-DE”; SEQ ID NO: 10) were fused to the transactivation domain from VP16 (“VP16AD”; SEQ ID NO: 5) and placed under the control of the SV40e promoter of the pVP16 vector (PT3127-5, Clontech, Palo Alto, Calif.).
# CHO cells were transienty transfected with transcription cassettes for GAL4 DBD-CfEcR(DEF) and for VP16AD-MmRXRE controlled by SV40e promoters. Stably transfected cells were selected using Hygromycin. Individually isolated CHO cell clones were transiently transfected with a GAL4 RE-luciferase reporter (pMR-Luc, Stratagene, La Jolla, Calif.). The 13B3 clone was selected using Zeocin.
# Cells were trypsinized and diluted to a concentration of 2.5×10^4 cells mL. 100 μL of cell suspension was placed in each well of a 96 well plate and incubated at 37° C. under 5% CO2 for 24 h. Ligand stock solutions were prepared in DMSO and diluted 300 fold for all treatments. Dose response testing consisted of 8 concentrations ranging from 33 μM to 0.01 μM.
# Luciferase reporter gene expression was measured 48 h after cell treatment using Bright-Glo™ Luciferase Assay System from Promega (E2650). Luminescence was detected at room temperature using a Dynex MLX microtiter plate luminometer.
# Fold inductions were calculated from single dose testing by dividing relative light units (RLU) in ligand treated cells by RLU in DMSO treated cells. BC50s were calculated from dose response data using a three-parameter logistic model.
# [2] = target: T2, Bombyx mori EcR (VP16 fusion, switch construct CVBE) with 6XEcRE LacZ reporter (Bombyx mori, UniProt P49881); assay: Z3 assay: β-galactosidase (LacZ) reporter gene fold induction in stably transformed human 293 kidney cells (clone Z3); assay type: cell-based; settings: for Fold Induction Average, Z3 Assay (33 μM): single dose 33 μM, ligand treated / DMSO treated cells
# T2 construct: expressed in transfected cells; host or cells: Human 293 kidney (HEK-293) cells, retrovirally infected, clone Z3
# T2 sequence (P49881 86-606 limits assumed): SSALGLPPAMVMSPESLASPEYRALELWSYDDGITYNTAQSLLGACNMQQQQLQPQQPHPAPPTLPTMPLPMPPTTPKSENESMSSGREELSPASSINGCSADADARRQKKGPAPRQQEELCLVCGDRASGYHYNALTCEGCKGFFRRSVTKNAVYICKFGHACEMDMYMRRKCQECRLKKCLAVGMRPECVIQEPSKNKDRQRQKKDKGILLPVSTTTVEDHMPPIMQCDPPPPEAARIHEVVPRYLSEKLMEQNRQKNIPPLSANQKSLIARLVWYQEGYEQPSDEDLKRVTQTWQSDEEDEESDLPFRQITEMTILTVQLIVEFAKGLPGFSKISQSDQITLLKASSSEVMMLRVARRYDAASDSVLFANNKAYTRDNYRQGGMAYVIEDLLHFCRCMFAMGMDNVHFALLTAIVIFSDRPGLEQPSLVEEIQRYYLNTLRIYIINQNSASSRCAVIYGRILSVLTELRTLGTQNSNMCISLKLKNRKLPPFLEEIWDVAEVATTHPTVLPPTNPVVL
# T2 sequence (P19793 1-462 partner): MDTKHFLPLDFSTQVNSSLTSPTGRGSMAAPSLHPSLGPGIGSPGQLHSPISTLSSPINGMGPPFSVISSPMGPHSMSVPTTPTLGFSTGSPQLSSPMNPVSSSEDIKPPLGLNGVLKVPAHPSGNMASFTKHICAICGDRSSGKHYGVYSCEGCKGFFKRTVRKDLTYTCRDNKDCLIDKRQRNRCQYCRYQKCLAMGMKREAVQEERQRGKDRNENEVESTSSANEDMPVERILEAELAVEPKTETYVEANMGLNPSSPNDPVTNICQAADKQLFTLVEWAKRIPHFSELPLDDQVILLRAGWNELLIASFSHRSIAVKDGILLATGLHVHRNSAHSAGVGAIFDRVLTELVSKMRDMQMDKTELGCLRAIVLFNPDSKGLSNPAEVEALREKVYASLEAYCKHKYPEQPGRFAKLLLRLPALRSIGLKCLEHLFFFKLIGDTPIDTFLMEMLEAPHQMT
# Excerpt: Dr. F. Gage provided a population of stably transformed cells containing CVBE and 6XEcRE as described in Suhr, S. T., Gil, E. B., Senut M. C., Gage, F. H. (1998) Proc. Natl. Acad. Sci. USA 95, 7999-804. Human 293 kidney cells, also referred to as HEK-293 cells, were sequentially infected with retroviral vectors encoding first the switch construct CVBE, and subsequently the reporter construct 6XEcRE Lac Z. The switch construct contained the coding sequence for amino acids 26-546 from Bombyx mori EcR (BE) (Iatrou) inserted in frame and downstream of the VP16 transactivation domain (VBE). A synthetic ATG start codon was placed under the control of cytomegalovirus (CVBE) immediate early promoter and flanked by long terminal repeats (LTR). The reporter construct contained six copies of the ecdysone response element (EcRE) binding site placed upstream of LacZ and flanked on both sides with LTR sequences (6XEcRE).
# Dilution cloning was used to isolate individual clones. Clones were selected using 450 ug/mL G418 and 100 ng/mL puromycin. Individual clones were evaluated based on their response in the presence and absence of test ligands. Clone Z3 was selected for screening and SAR purposes.
# Human 293 kidney cells stably transformed with CVBE and 6XEcRE lack were maintained in Minimum Essential Medium (Mediates, 10-010-CV) containing 10% FBS (Life Technologies, 26140-087), […] G418 (Mediates, 30-234-CR), and […] (Sigma, P-7255), at 37° C. in an atmosphere containing 5% CO2 and were subculture when they reached 75% confluence.
# Z3 cells were seeded into 96-well tissue culture plates at a concentration of 2.5×10^3 cells per well and incubated at 37° C. in 5% CO2 for twenty-four hours. Stock solutions of ligands were prepared in DMSO. Ligand stock solutions were diluted 100 fold in media and 50 μL of this diluted ligand solution (33 μM) was added to cells. The final concentration of DMSO was maintained at […] in both controls and treatments.
# Reporter gene expression was evaluated 48 hours after treatment of cells, β-galactosidase activity was measured using Gal Screen™ bioluminescent reporter gene assay system from Tropix (GSY1000).
# Flanking both constructs are long terminal repeats, G418 and puromycin are selectable markers, CMV is the cytomegalovirus promoter, VBE is coding sequence for amino acids 26-546 from Bombyx mori EcR inserted downstream of the VP16 transactivation domain, 6×EcRE is six copies of the ecdysone response element, lacZ encodes for the reporter enzyme β-galactosidase. Suhr, S. T., Gil, E. B., Senut M. C., Gage, F. H. (1998) Proc. Natl. Acad. Sci. USA 95, 7999-804. Swevers, L., Drevet, J. R., Lunke, M. D., Iatrou, K. (1995) Insect Biochem. Mol. Biol. 25, 857-866.
SMILES,"Fold Induction Average, 13B3 Assay (33 μM) [1]","Fold Induction Average, Z3 Assay (33 μM) [2]","Fold Induction Average, 13B3 Assay (33 μM) ([1]; single dose 33 μM, RLU ligand treated / RLU DMSO treated cells)","CC50 ([2]; average, dose response, three-parameter logistic model, read-out: Z3 LC50) [nM]",Z3 Rel Max FI ([2]; maximum fold induction at any concentration relative to that of GS-E ligand)
COc1cccc(C(=O)NC(C)(CC(C)C)C(=O)c2ccc(F)c(C)c2)c1C (stereo not shown) [Example 54],0,41,–,–,–
COc1cccc(C(=O)NC(C(=O)c2cccc(C)c2)(c2ccccc2)C(C)C)c1C (stereo not shown) [Example 57],0,8,–,–,–
CCC(CC)(NC(=O)c1cccc(OC)c1C)C(=O)c1ccc(OC)cc1 [Example 58],4,4,–,–,–
CCC(CC)(NC(=O)c1cccc(OC)c1C)C(=O)c1ccc2c(c1)OCO2 [Example 59],0,2,–,–,–
COc1cccc(C(=O)NC2(C(=O)c3cccc(C)c3)CCC(=O)CC2)c1C [Example 61],0,102,–,–,–
CC(=O)NC(C(=O)c1ccc(C)cc1)c1ccccc1 (stereo not shown) [Example 92],0,1,–,–,–
CC(=O)NC(C(=O)c1ccccc1)c1ccc(C)cc1 (stereo not shown) [Example 93],0,1,–,–,–
CC(=O)NC(C(=O)c1ccccc1)c1ccccc1 (stereo not shown) [Example 94],1,1,–,–,–
CC(C)(NC(=O)c1ccc(Cl)cc1)C(=O)c1ccccc1 [Example 95],–,4,1,820,2.27
Cc1ccc(C(=O)NC(C(=O)c2ccccc2)C(C)(C)C)cc1 (stereo not shown) [Example 96],0,1,–,–,–
Cc1cccc(C(=O)NC(C(=O)c2ccccc2)C(C)(C)C)c1C (stereo not shown) [Example 97],0,1,–,–,–
CC(C)(C)C(NC(=O)c1ccc([N+](=O)[O-])cc1)C(=O)c1ccccc1 (stereo not shown) [Example 98],0,1,–,–,–
COc1cccc(C(=O)C2(NC(=O)c3cccc(OC)c3C)CC2)c1 [Example 99],0,1,–,–,–
COc1cccc(C(=O)C(C)(Cc2ccccc2)NC(=O)c2cccc(OC)c2C)c1 (stereo not shown) [Example 100],0,2,–,–,–
COc1cccc(C(=O)NC2(C(=O)c3ccccc3C)CC2)c1C [Example 101],2,2,–,–,–
Cc1c(C(=O)NC2(C(=O)c3ccccc3)CCCC2)oc2ccccc12 [Example 102],1,1,–,–,–
CC(C)(NC(=O)c1ccccc1)C(=O)c1ccccc1 [Example 104],0,1,–,–,–
Cc1ccccc1C(=O)NC(C)(C)C(=O)c1ccccc1 [Example 105],3,1,–,–,–
CC(C)(NC(=O)c1ccc2c(c1)OCO2)C(=O)c1ccccc1 [Example 106],3,1,–,–,–
COc1cccc(C(=O)NC(C)(C)C(=O)c2ccccc2)c1 [Example 107],2,1,–,–,–
CCc1ccc(C(=O)NC(C)(C)C(=O)c2ccccc2)cc1 [Example 108],1,2,–,–,–
COc1cccc(C(=O)NC2(C(=O)c3cccc(C)c3)CCN(C(=O)OC(C)(C)C)CC2)c1C [Example 109],0,3,–,–,–
